For data set [1], the system named is rat primary hepatocytes.
The test system of data set [2] is HepG2 cells. As to conditions: cited from earlier work; call rule not given here.
Data set [3] concerns HepG2 cells. Nature of the data set: cells. Particulars: Homo sapiens; for IC50: HepG2, read-out: MMP assays IC50 (µM) HepG2; for Emax: HepG2, read-out: MMP assays efficacy (%) HepG2.
Data set [4] deals with rat primary hepatocytes. Briefly: MMP assay in rat primary hepatocytes. As to conditions: for IC50: read-out: MMP assays IC50 (µM) Rat Hepatocytes.
The subject of data set [5] is HepG2 cells. As to conditions: HepG2 cells, single number from one experiment; for IC50: read-out: MMP assays IC50 (µM) HepG2.
[6] abbreviates: read-out: MMP assays IC50 (µM), qHTS-HepG2.
The mark [7] stands for this setting: read-out: MMP assays IC50 (µM) qHTS-HepG2.
Where [8] appears, read: rat hepatocytes, mean ± SD of three experiments.

Like-named read-outs stand apart in the source and are kept apart here.

Consider `COc1ccc(C(c2ccc(OC)cc2)C(Cl)(Cl)Cl)cc1` [Methoxychlor], for which the “MMP assays efficacy (%) Rat Hepatocytes” value in the data set with rat primary hepatocytes [1] is listed as -75±11%. Besides, the “MMP assays efficacy (%) qHTS-HepG2” value with HepG2 cells [2] is reported as -101±17%. For the same molecule, the IC50 in the data set with HepG2 cells [2] (setting [6]) was 26.3 ± 8.69 µM; with HepG2 cells [3], 28.2 µM; with rat primary hepatocytes [4] (Rattus norvegicus, Hepatocyte), 27.7 ± 11 µM. Further, the Emax in the data set on HepG2 cells [3] came out at 88%.
`CC1(C(=O)Nc2ccc(O)c(Cl)c2Cl)CCCCC1` [Fenhexamid]: the “MMP assays efficacy (%) Rat Hepatocytes” value in the data set with rat primary hepatocytes [1] is reported as -62±26%. For the same molecule, in the data set on HepG2 cells [2], the “MMP assays efficacy (%) qHTS-HepG2” value is given as -88±22%. The IC50 is 8.31 ± 1.15 µM in the data set with HepG2 cells [2] (setting [7]); 17.8 µM in the data set with HepG2 cells [3]; 36.7 ± 21.2 µM with rat primary hepatocytes [4] (Rattus norvegicus, Hepatocyte). Further, in the data set on HepG2 cells [3], the Emax amounted to 98%.
In the case of `C[C@@]12C(=O)OC(=O)[C@]1(C)[C@H]1CC[C@@H]2O1` [Cantharidin], in the data set on rat primary hepatocytes [1], the “MMP assays efficacy (%) Rat Hepatocytes” value is recorded as -91±63%. For the same molecule, in the data set on HepG2 cells [2], the “MMP assays efficacy (%) qHTS-HepG2” value is on record as -67±9%. Moreover, the IC50 was 0.15 ± 0.08 µM in the data set on HepG2 cells [2] (setting [7]); 0.12 µM in the data set on HepG2 cells [3]; 0.45 ± 0.3 µM in the data set with rat primary hepatocytes [4] (Rattus norvegicus, Hepatocyte). In the data set on HepG2 cells [3], the Emax came out at 98%.
With `C=C(C)CN(CC)c1c([N+](=O)[O-])cc(C(F)(F)F)cc1[N+](=O)[O-]` [Ethalfluralin], the “MMP assays efficacy (%) Rat Hepatocytes” value with rat primary hepatocytes [1] is “inactive”. For the same molecule, in the data set on HepG2 cells [2], the “MMP assays efficacy (%) qHTS-HepG2” value is -57±4%. The IC50 with HepG2 cells [2] (setting [7]) was 43.3 ± 17.6 µM; in the data set on HepG2 cells [3], 44.7 µM. Besides, in the data set on HepG2 cells [3], the Emax came out at 68%. The “MMP assays IC50 (µM) Rat Hepatocytes” value in the data set on rat primary hepatocytes [4] was “inactive”.
With `Oc1cc(Cl)c(Cl)c(Cl)c1Cl` [2,3,4,5-Tetrachlorophenol], in the data set on rat primary hepatocytes [1], the “MMP assays efficacy (%) Rat Hepatocytes” value is listed as -76±25%. Besides, in the data set on HepG2 cells [2], the “MMP assays efficacy (%) qHTS-HepG2” value is given as -99±11%. For the same molecule, the IC50 with HepG2 cells [2] (setting [7]) is 4.93 ± 2.04 µM; in the data set with HepG2 cells [3], 7.94 µM; with rat primary hepatocytes [4] (Rattus norvegicus, Hepatocyte) it was 11.6 ± 5.42 µM. In addition, the Emax in the data set on HepG2 cells [3] came to 121%.
Take `O=C(CCCN1CCC2(CC1)C(=O)NCN2c1ccccc1)c1ccc(F)cc1` [Spiperone]: in the data set with rat primary hepatocytes [1], the “MMP assays efficacy (%) Rat Hepatocytes” value is -74±48%. Besides, in the data set on HepG2 cells [2], the “MMP assays efficacy (%) qHTS-HepG2” value is -65±12%. In addition, the Emax in the data set on HepG2 cells [3] worked out at 54%.
On to `COC(=O)N(OC)c1ccccc1COc1ccn(-c2ccc(Cl)cc2)n1` [Pyraclostrobin], for which the “MMP assays efficacy (%) Rat Hepatocytes” value with rat primary hepatocytes [1] is on record as -121±32%. For the same molecule, the “MMP assays efficacy (%) qHTS-HepG2” value in the data set with HepG2 cells [2] is -116±2%. The concentration for half-maximal inhibition (IC50) in the data set on HepG2 cells [2] (setting [6]) is 6.35 ± 1.92 µM; with HepG2 cells [3], 1.26 µM; with rat primary hepatocytes [4] (Rattus norvegicus, Hepatocyte), 9.04 ± 1.89 µM. Moreover, in the data set on HepG2 cells [3], the Emax was found to be 118%.
As to `CC(=O)Oc1ccc(C(c2ccc(OC(C)=O)cc2)c2ccccn2)cc1` [Bisacodyl], in the data set on rat primary hepatocytes [1], the “MMP assays efficacy (%) Rat Hepatocytes” value is reported as -73±12%. In the data set with HepG2 cells [2], the “MMP assays efficacy (%) qHTS-HepG2” value was -67±5%. The half-maximal inhibitory concentration (IC50) in the data set on HepG2 cells [2] (setting [7]) is 14.8 ± 3.63 µM; in the data set on HepG2 cells [3], 7.74 µM; with rat primary hepatocytes [4] (Rattus norvegicus, Hepatocyte), 18.4 ± 13 µM. Moreover, the Emax in the data set with HepG2 cells [3] was determined as 95%.
For the molecule `Oc1ccc(Cl)c(Cl)c1` [3,4-Dichlorophenol], the “MMP assays efficacy (%) Rat Hepatocytes” value in the data set with rat primary hepatocytes [1] is -45±32%. Moreover, the “MMP assays efficacy (%) qHTS-HepG2” value with HepG2 cells [2] was -104±7%. Moreover, the IC50 is 9.18 ± 2.63 µM in the data set with HepG2 cells [2] (setting [7]); 15.8 µM with HepG2 cells [3]; 53.9 ± 13 µM with rat primary hepatocytes [4] (Rattus norvegicus, Hepatocyte). For the same molecule, the Emax in the data set with HepG2 cells [3] stood at 114%.
As for TYROTHRICIN, the “MMP assays efficacy (%) Rat Hepatocytes” value with rat primary hepatocytes [1] was -89±25%.
Take `COC(=O)Nc1nc2ccc(C(=O)c3ccccc3)cc2[nH]1` [Mebendazole]: the “MMP assays efficacy (%) Rat Hepatocytes” value in the data set on rat primary hepatocytes [1] was “inactive”. Also, the “MMP assays efficacy (%) qHTS-HepG2” value in the data set on HepG2 cells [2] is reported as -70±10%. Also, in the data set on HepG2 cells [2] (setting [6]), the IC50 is 2.45 ± 0.34 µM. Further, in the data set with HepG2 cells [3], the IC50 worked out at 2.34 µM and the Emax was found to be 89%.
With `O=C(c1ccccc1)c1cccc(O)c1` [Compound 3-Hydroxybenzophenone], in the data set on HepG2 cells [5], the “MMP assays efficacy (%) HepG2” value was -86% and the IC50 is 39.8 µM. Besides, in the data set with HepG2 cells [2], the “MMP assays efficacy (%) qHTS-HepG2” value is reported as -87±9%. Moreover, the IC50 with HepG2 cells [2] (setting [7]) was 27.7 µM. Moreover, in the data set on rat primary hepatocytes [4] (setting [8]), the “MMP assays IC50 (µM) Rat Hepatocytes” value is “inactive” and the “MMP assays efficacy (%) Rat Hepatocytes” value is “inactive”.
In the case of `CCCCCCCCCCCCCC[P+](CCCCCC)(CCCCCC)CCCCCC.N#C[N-]C#N`, the “MMP assays efficacy (%) HepG2” value in the data set on HepG2 cells [5] is given as -94%. Further, the figures for the IC50 in the data set with HepG2 cells [5], in the data set with HepG2 cells [2] (setting [6]) and in the data set with rat primary hepatocytes [4] (setting [8]) were 0.89 µM, 0.39 ± 0.19 µM and 31 ± 11.7 µM, respectively. In the data set with HepG2 cells [2], the “MMP assays efficacy (%) qHTS-HepG2” value is listed as -103±9%. In addition, the “MMP assays efficacy (%) Rat Hepatocytes” value with rat primary hepatocytes [4] (setting [8]) is listed as -81±9%.
`CCCCCCCCCCn1cc[n+](C)c1.O=S(=O)([O-])C(F)(F)F` [1-Decyl-3-methylimidazolium trifluoromethanesulfonate]: in the data set with HepG2 cells [5], the “MMP assays efficacy (%) HepG2” value is -99% and the IC50 is 7.08 µM. For the same molecule, in the data set with HepG2 cells [2], the “MMP assays efficacy (%) qHTS-HepG2” value is -57±16%. For the same molecule, in the data set on HepG2 cells [2] (setting [7]), the IC50 was 1.67 ± 2.71 µM. For the same molecule, in the data set on rat primary hepatocytes [4] (setting [8]), the “MMP assays efficacy (%) Rat Hepatocytes” value is reported as -125±47% and the IC50 worked out at 12.1 ± 3.97 µM.

Broadly, the IC50 is the concentration at which inhibition is half-maximal.

Values taken from article PMC6112376, “Comprehensive Analyses and Prioritization of Tox21 10K Chemicals Affecting Mitochondrial Function by in-Depth Mechanistic Studies” (Environmental Health Perspectives, 2018).
